US6376209B2, “Increasing the FVII sensitivity of a thromboplastin reagent” (Dade Behring Marburg GmbH, priority 1997, dated 2002)
Where a SMILES comes first, the peptide text is derived from it. [ ]: non-standard residue; d: D form. The star is where a group is joined. Sta = CC(C)C[C@H](N)[C@@H](O)CC(=O)O; Isovaleryl = CC(C)CC(=O)*

Columns and labels:
Type in all cases: biochemical
FVII-deficient plasma [1] = test: Quick's thromboplastin time (PT), Schnitger & Gross; parameters: Coagulation time, Sample: FVII: unit not given beside the values; conditions: for Coagulation time FVII-MP / FVII sens.: FVII-MP/100%: 0.5 sec; for Coagulation time, Sample: FVII / FVII sens.: FVII/100%: ascorbic acid 1 mM, Fe(II)SO4 or CuCl 0.01 mM, stabilization after 6 h (iron: after 1 h)
Description: (§1) Quick's thromboplastin time (PT) was then determined using a Schnitger & Gross as follows:
(§2) Heat reagents and tubes to 37° C.;
(§3) Introduce […] of control plasma N or FVII-deficient plasma into the tubes;
(§4) Incubate for 1 min in the thermoblock;
(§5) Add 200 μl of thromboplastin and at the same time start the measuring operation; shake the tube briefly and place it in the measuring position of the Schnitger & Gross, and insert the electrode holder up to the limit stop;
(§6) Read off the coagulation time.
(§7) Quick's thromboplastin time (PT) is then determined using a Schnitger & Gross as follows:
(§8) Introduce 100 μl of plasma into the tubes;
(§9) Add 200 μl of thromboplastin and at the same time start the measuring operation;
(§10) shake the tube briefly, place it in the measuring position of the Schnitger & Gross, and insert the electrode holder up to the limit stop;

Standard human plasma [2] = test: as above; conditions: for Coagulation time 100%: 0.5 sec; for Coagulation time, Sample: 100%: ascorbic acid 1 mM, stabilization after 6 h (iron: after 1 h)
Description: as §1, §2, §3, §4, §5, §6, §7, §8, §9, §10

control plasma Patho II [3] = test: as above
Description: as §7, §2, §8, §4, §9, §10, §6
The spread was calculated from the ratio of the coagulation times for the dilution of the StHPl and the StHPl, and the FVII sensitivity was calculated from the ratio of the coagulation times for FVII-MP and STHPL.
(§11) Standard human plasma, the control plasma Patho II and an FVII-deficient plasma were used as samples. The reagents were stored at 4° C. and 37° C. and the coagulation time was repeated after 7 and 14 days. The spread was calculated from the ratio of the coagulation times of the Patho II and the StHPl, and the FVII sensitivity was calculated from the ratio of the coagulation times for FVII-MP and the STHPL.

control plasma Patho II [4] = test: PT, Behring Coagulation Timer (PT.sec Thromborel S); conditions: 0.75 sec, incubated 37° C., 90 min
Description: (§12) The coagulation time was determined using a Behring Coagulation Timer (PT.sec Thromborel S). Standard human plasma, the. control plasma Patho II (Behringwerke AG) and an FVII-deficient plasma were employed as samples. The spread was calculated from the ratio of the coagulation times of the Patho II and the StHPl, and the FVII sensitivity was calculated from the ratio of the coagulation times for FVII-MP and STHPL.
as §12, with “plasma, the” for “plasma, the.”, “II” for “II (Behringwerke AG)”, “spread as” for “spread was”
(§13) Thromborel S Bulkware according to Example 8a) was short-time heated at a temperature of 120° C. using a dwell time of 0.75 sec and then adjusted to pH 7.5 with 0.16 mM sodium carbonate; different concentrations of chloramine T were subsequently added and the mixtures were incubated at 37° C. for 90 min. Stabilizers and 6 mM acetylcysteine were added to the solution. The pH value was adjusted to 6.5 and the coagulation time was determined using a Behring Coagulation Timer (PT.sec Thromborel S).
as §11, with “samples.” for “samples. The reagents were stored at 4° C. and 37° C. and the coagulation time was repeated after 7 and 14 days.”, “for the” for “for”

Standard human plasma [5] = test: as above; conditions: 0.75 sec, incubated 37° C., 90 min
Description: as §13
as §11, with “samples.” for “samples. The reagents were stored at 4° C. and 37° C. and the coagulation time was repeated after 7 and 14 days.”, “for the” for “for”

FVII-deficient plasma [6] = test: as above; conditions: 0.75 sec, incubated 37° C., 90 min
Description: as §13
as §11, with “samples.” for “samples. The reagents were stored at 4° C. and 37° C. and the coagulation time was repeated after 7 and 14 days.”, “for the” for “for”

[7] = 0.7 mg/l added to Thromborel S heated 95° C.
[8] = 0.7 mg/l added to Thromborel S heated 95° C., 0.5 sec
[9] = reagent stored 18 h/4° C., ascorbic acid 1 mM, Fe(II)SO4 or CuCl 0.01 mM, stabilization after 6 h (iron: after 1 h)
[10] = reagent stored 7 days 4° C., ascorbic acid 1 mM, Fe(II)SO4 or CuCl 0.01 mM, stabilization after 6 h (iron: after 1 h)
[11] = reagent stored 7 days 37° C., ascorbic acid 1 mM, Fe(II)SO4 or CuCl 0.01 mM, stabilization after 6 h (iron: after 1 h)
[12] = 0.001 mM added to Thromborel S heated 120° C.
[13] = 0.01 mM added to Thromborel S heated 120° C.
[14] = 0.1 mM added to Thromborel S heated 120° C.
[15] = 0.01 mM added to Thromborel S heated 95° C.
[16] = 0.025 mM added to Thromborel S heated 95° C.
[17] = 0.05 mM added to Thromborel S heated 95° C.
[18] = 0.1 mM added to Thromborel S heated 95° C.
[19] = 0.5 mM added to Thromborel S heated 95° C.
[20] = 0.01 mM added to Thromborel S heated 95° C., 0.5 sec
[21] = 0.025 mM added to Thromborel S heated 95° C., 0.5 sec
[22] = 0.05 mM added to Thromborel S heated 95° C., 0.5 sec
[23] = 0.1 mM added to Thromborel S heated 95° C., 0.5 sec
[24] = 0.5 mM added to Thromborel S heated 95° C., 0.5 sec

## CC(C)CC(=O)N[C@H](C(=O)N[C@H](C(=O)N[C@@H](CC(C)C)[C@@H](O)CC(=O)N[C@@H](C)C(=O)N[C@@H](CC(C)C)[C@@H](O)CC(=O)O)C(C)C)C(C)C [Pepstatin] (Isovaleryl-VV[Sta]A[Sta]-OH)
FVII-deficient plasma [1]; [7]
  Coagulation time FVII-MP: 115 s
  FVII sens.: FVII-MP/100%: 10.9
Standard human plasma [2]; [7]
  Coagulation time 100%: 10.6 s
Control plasma Patho II [3]; [8]
  Coagulation time Patho II: 21.6 s
  Spread: Patho II/100%: 2.0

## O=C1O[C@H]([C@@H](O)CO)C(O)=C1O [ascorbic acid]
FVII-deficient plasma [1]; reagent stored 18 h/4° C.
  Coagulation time, Sample: FVII: 157.7
  FVII sens.: FVII/100%: 11.5
FVII-deficient plasma [1]; reagent stored 7 days 4° C.
  Coagulation time, Sample: FVII: 154.3
  FVII sens.: FVII/100%: 11.0
FVII-deficient plasma [1]; reagent stored 7 days 37° C.
  Coagulation time, Sample: FVII: 181.1
  FVII sens.: FVII/100%: 12.3
FVII-deficient plasma [1]; reagent stored 14 days 4° C.
  Coagulation time, Sample: FVII: 161.6
  FVII sens.: FVII/100%: 11.5
FVII-deficient plasma [1]; reagent stored 14 days 37° C.
  Coagulation time, Sample: FVII: 195.8
  FVII sens.: FVII/100%: 12.8
Standard human plasma [2]; reagent stored 18 h/4° C., Fe(II)SO4 or CuCl 0.01 mM in Thromborel S heated 85° C., 3 sec
  Coagulation time, Sample: 100%: 13.7
Standard human plasma [2]; reagent stored 7 days 4° C., Fe(II)SO4 or CuCl 0.01 mM
  Coagulation time, Sample: 100%: 14
Standard human plasma [2]; reagent stored 7 days 37° C., Fe(II)SO4 or CuCl 0.01 mM
  Coagulation time, Sample: 100%: 14.7
Standard human plasma [2]; reagent stored 14 days 4° C., Fe(II)SO4 or CuCl 0.01 mM
  Coagulation time, Sample: 100%: 14.1
Standard human plasma [2]; reagent stored 14 days 37° C., Fe(II)SO4 or CuCl 0.01 mM
  Coagulation time, Sample: 100%: 15.3
Control plasma Patho II [3]; [9]
  Coagulation time, Sample: Patho II: 51.4
  Spread: Patho II/100%: 3.8
Control plasma Patho II [3]; [10]
  Coagulation time, Sample: Patho II: 51.3
  Spread: Patho II/100%: 3.7
Control plasma Patho II [3]; [11]
  Coagulation time, Sample: Patho II: 51.5
  Spread: Patho II/100%: 3.5
Control plasma Patho II [3]; reagent stored 14 days 4° C., ascorbic acid 1 mM, Fe(II)SO4 or CuCl 0.01 mM, stabilization after 6 h (iron: after 1 h)
  Coagulation time, Sample: Patho II: 51.1
Control plasma Patho II [3]; reagent stored 14 days 37° C., ascorbic acid 1 mM, Fe(II)SO4 or CuCl 0.01 mM, stabilization after 6 h (iron: after 1 h)
  Coagulation time, Sample: Patho II: 53.1

## Cc1ccc(S(=O)(=O)[N-]Cl)cc1.[Na+] [chloramine T]
Control plasma Patho II [4]; [12]
  Coagulation time Patho II: 34.2 s
  Spread Patho II/100%: 3.0
Control plasma Patho II [4]; [13]
  Coagulation time Patho II: 34.7 s
  Spread Patho II/100%: 3.0
Control plasma Patho II [4]; [14]
  Coagulation time Patho II: 38.2 s
  Spread Patho II/100%: 2.9
Standard human plasma [5]; [12]
  Coagulation time 100%: 11.5 s
Standard human plasma [5]; [13]
  Coagulation time 100%: 11.7 s
Standard human plasma [5]; [14]
  Coagulation time 100%: 13 s
FVII-deficient plasma [6]; [12]
  Coagulation time FV-MP: 140.1 s
  FVII-sens. FVII-MP/100%: 12.2
FVII-deficient plasma [6]; [13]
  Coagulation time FV-MP: 141.6 s
  FVII-sens. FVII-MP/100%: 12.1
FVII-deficient plasma [6]; [14]
  Coagulation time FV-MP: 177.4 s
  FVII-sens. FVII-MP/100%: 13.6

## Nc1ccc(CS(=O)(=O)F)cc1 [pa-PMSF, 4-aminophenylmethanesulfonyl fluoride]
FVII-deficient plasma [1]; [15]
  Coagulation time FVII-MP: 144 s
  FVII sens.: FVII-MP/100%: 13.6
FVII-deficient plasma [1]; [16]
  Coagulation time FVII-MP: 147 s
  FVII sens.: FVII-MP/100%: 13.8
FVII-deficient plasma [1]; [17]
  Coagulation time FVII-MP: 161 s
  FVII sens.: FVII-MP/100%: 15.2
FVII-deficient plasma [1]; [18]
  Coagulation time FVII-MP: 172 s
  FVII sens.: FVII-MP/100%: 16.1
FVII-deficient plasma [1]; [19]
  Coagulation time FVII-MP: 298 s
  FVII sens.: FVII-MP/100%: 27.6
Standard human plasma [2]; [15]
  Coagulation time 100%: 10.6 s
Standard human plasma [2]; [16]
  Coagulation time 100%: 10.6 s
Standard human plasma [2]; [17]
  Coagulation time 100%: 10.6 s
Standard human plasma [2]; [18]
  Coagulation time 100%: 10.7 s
Standard human plasma [2]; [19]
  Coagulation time 100%: 10.8 s
Control plasma Patho II [3]; [20]
  Coagulation time Patho II: 22.3 s
  Spread: Patho II/100%: 2.1
Control plasma Patho II [3]; [21]
  Coagulation time Patho II: 21.8 s
  Spread: Patho II/100%: 2.1
Control plasma Patho II [3]; [22]
  Coagulation time Patho II: 22.2 s
  Spread: Patho II/100%: 2.1
Control plasma Patho II [3]; [23]
  Coagulation time Patho II: 21.7 s
  Spread: Patho II/100%: 2.0
Control plasma Patho II [3]; [24]
  Coagulation time Patho II: 23.i
  Spread: Patho II/100%: 2.1
